Source: ChEMBL document CHEMBL3885861, “Open TG-GATES”

Species on record: Rattus norvegicus
Test: Open TG-GATES - Regimen: Daily Repeat
Type: toxicity, organism-based, Sprague-Dawley
Parameters: regimen Daily Repeat, gender Male, age 6 weeks
Details: in vivo, po, 0 mg/kg, route gavage, dose level Control; for KIDNEY_L / KIDNEY_R / KIDNEY_TOTAL: tissue Kidney; for ALP / ALT / AST / BUN / CRE / Ca / Cl / DBIL / GLC / IP / K / LDH / Na / PL / RALB / TBIL / TC / TG / TP / gamma-GTP: tissue Plasma

CC(=O)Oc1ccccc1C(=O)O [ASPIRIN]
TERMINAL_BW (72 h, time 3 day): 238.8 g | APTT (72 h, tissue Blood, time 3 day): 19.3 s | Bas (72 h, tissue Blood, time 3 day): 0% | Eos (72 h, tissue Blood, time 3 day): 1% | Fbg (72 h, tissue Blood, time 3 day): 216.6 mg/dL | Hb (72 h, tissue Blood, time 3 day): 13.1 g/dL | Ht (72 h, tissue Blood, time 3 day): 38.5% | Lym (72 h, tissue Blood, time 3 day): 82% | MCH (72 h, tissue Blood, time 3 day): 21.2 pg | MCHC (72 h, tissue Blood, time 3 day): 34.2% | MCV (72 h, tissue Blood, time 3 day): 62.1 fL | Mono (72 h, tissue Blood, time 3 day): 2.4% | Neu (72 h, tissue Blood, time 3 day): 13.4% | Plat (72 h, tissue Blood, time 3 day): 121.3 x10_4/uL | RBC (72 h, tissue Blood, time 3 day): 620 x10_4/ul | Ret (72 h, tissue Blood, time 3 day): 5.9% | WBC (72 h, tissue Blood, time 3 day): 98.5 x10_2/uL | KIDNEY_L (72 h, time 3 day): 1.1 g | KIDNEY_R (72 h, time 3 day): 1.1 g | KIDNEY_TOTAL (72 h, time 3 day): 2.1 g | ALP (72 h, time 3 day): 970.4 IU/L | ALT (72 h, time 3 day): 35.6 IU/L | AST (72 h, time 3 day): 73.2 IU/L | BUN (72 h, time 3 day): 14.8 mg/dL | CRE (72 h, time 3 day): 0.4 mg/dL | Ca (72 h, time 3 day): 10.8 mg/dL | Cl (72 h, time 3 day): 102.2 meq/L | DBIL (72 h, time 3 day): 0.082 mg/dL | GLC (72 h, time 3 day): 203.2 mg/dL | IP (72 h, time 3 day): 7.1 mg/dL | K (72 h, time 3 day): 3.9 meq/L | LDH (72 h, time 3 day): 223 IU/L | Na (72 h, time 3 day): 140.4 meq/L | PL (72 h, time 3 day): 148.8 mg/dL | RALB (72 h, time 3 day): 3.4 g/dL | TBIL (72 h, time 3 day): 0.1 mg/dL | TC (72 h, time 3 day): 74.6 mg/dL | TG (72 h, time 3 day): 99.2 mg/dL | TP (72 h, time 3 day): 5.7 g/dL | gamma-GTP (72 h, time 3 day): 1 IU/L | TERMINAL_BW ([…], time 7 day): 272.8 g | TERMINAL_BW ([…], time 14 day): 324.4 g | TERMINAL_BW ([…], time 28 day): 389.9 g | APTT ([…], tissue Blood, time 7 day): 21.2 s | Bas ([…], tissue Blood, time 7 day): 0% | Eos ([…], tissue Blood, time 7 day): 1% | Fbg ([…], tissue Blood, time 7 day): 211.2 mg/dL | Hb ([…], tissue Blood, time 7 day): 13.7 g/dL | Ht ([…], tissue Blood, time 7 day): 40.3% | Lym ([…], tissue Blood, time 7 day): 85.6% | MCH ([…], tissue Blood, time 7 day): 21.1 pg | MCHC ([…], tissue Blood, time 7 day): 34% | MCV ([…], tissue Blood, time 7 day): 62.1 fL | Mono ([…], tissue Blood, time 7 day): 2% | Neu ([…], tissue Blood, time 7 day): 11% | Plat ([…], tissue Blood, time 7 day): 128.4 x10_4/uL | RBC ([…], tissue Blood, time 7 day): 648.4 x10_4/ul | Ret ([…], tissue Blood, time 7 day): 5.3% | WBC ([…], tissue Blood, time 7 day): 135.5 x10_2/uL | APTT ([…], tissue Blood, time 14 day): 20.2 s | Bas ([…], tissue Blood, time 14 day): 0% | Eos ([…], tissue Blood, time 14 day): 0.8% | Fbg ([…], tissue Blood, time 14 day): 216.8 mg/dL | Hb ([…], tissue Blood, time 14 day): 14.2 g/dL | Ht ([…], tissue Blood, time 14 day): 40.6% | Lym ([…], tissue Blood, time 14 day): 82.6% | MCH ([…], tissue Blood, time 14 day): 20.8 pg | MCHC ([…], tissue Blood, time 14 day): 34.9% | MCV ([…], tissue Blood, time 14 day): 59.6 fL | Mono ([…], tissue Blood, time 14 day): 2% | Neu ([…], tissue Blood, time 14 day): 13.4% | RBC ([…], tissue Blood, time 14 day): 681.6 x10_4/ul | Ret ([…], tissue Blood, time 14 day): 3.4% | WBC ([…], tissue Blood, time 14 day): 134.5 x10_2/uL | APTT ([…], tissue Blood, time 28 day): 21.5 s | Bas ([…], tissue Blood, time 28 day): 0% | Eos ([…], tissue Blood, time 28 day): 1% | Fbg ([…], tissue Blood, time 28 day): 210.8 mg/dL | Hb ([…], tissue Blood, time 28 day): 15.7 g/dL | Ht ([…], tissue Blood, time 28 day): 45.3% | Lym ([…], tissue Blood, time 28 day): 81.8% | MCH ([…], tissue Blood, time 28 day): 19.3 pg | MCHC ([…], tissue Blood, time 28 day): 34.7% | MCV ([…], tissue Blood, time 28 day): 55.6 fL | Mono ([…], tissue Blood, time 28 day): 2% | Neu ([…], tissue Blood, time 28 day): 13.8% | PT ([…], tissue Blood, time 28 day): 12.6 s | Plat ([…], tissue Blood, time 28 day): 116.7 x10_4/uL | RBC ([…], tissue Blood, time 28 day): 815.4 x10_4/ul | Ret ([…], tissue Blood, time 28 day): 1.8% | WBC ([…], tissue Blood, time 28 day): 109 x10_2/uL | KIDNEY_L ([…], time 7 day): 1.2 g | KIDNEY_R ([…], time 7 day): 1.2 g | KIDNEY_TOTAL ([…], time 7 day): 2.3 g | KIDNEY_L ([…], time 14 day): 1.3 g | KIDNEY_R ([…], time 14 day): 1.3 g | KIDNEY_TOTAL ([…], time 14 day): 2.5 g | KIDNEY_L ([…], time 28 day): 1.4 g | KIDNEY_R ([…], time 28 day): 1.4 g | KIDNEY_TOTAL ([…], time 28 day): 2.8 g | ALP ([…], time 7 day): 844.4 IU/L | ALT ([…], time 7 day): 29.2 IU/L | AST ([…], time 7 day): 59.2 IU/L | BUN ([…], time 7 day): 15.8 mg/dL | CRE ([…], time 7 day): 0.4 mg/dL | Ca ([…], time 7 day): 10.7 mg/dL | Cl ([…], time 7 day): 102.4 meq/L | DBIL ([…], time 7 day): 0.096 mg/dL | GLC ([…], time 7 day): 210.8 mg/dL | IP ([…], time 7 day): 7.6 mg/dL | K ([…], time 7 day): 3.6 meq/L | LDH ([…], time 7 day): 178.2 IU/L | Na ([…], time 7 day): 141 meq/L | PL ([…], time 7 day): 137.4 mg/dL | RALB ([…], time 7 day): 3.4 g/dL | TBIL ([…], time 7 day): 0.1 mg/dL | TC ([…], time 7 day): 66.4 mg/dL | TG ([…], time 7 day): 100.2 mg/dL | TP ([…], time 7 day): 5.5 g/dL | gamma-GTP ([…], time 7 day): 0.6 IU/L | ALP ([…], time 14 day): 726.8 IU/L | ALT ([…], time 14 day): 33.4 IU/L | AST ([…], time 14 day): 62.2 IU/L | BUN ([…], time 14 day): 17.8 mg/dL | CRE ([…], time 14 day): 0.4 mg/dL | Ca ([…], time 14 day): 10.8 mg/dL | Cl ([…], time 14 day): 103 meq/L | DBIL ([…], time 14 day): 0.1 mg/dL | GLC ([…], time 14 day): 193.6 mg/dL | IP ([…], time 14 day): 7.2 mg/dL | K ([…], time 14 day): 3.9 meq/L | LDH ([…], time 14 day): 220.2 IU/L | Na ([…], time 14 day): 141 meq/L | PL ([…], time 14 day): 151.2 mg/dL | RALB ([…], time 14 day): 3.3 g/dL | TBIL ([…], time 14 day): 0.1 mg/dL | TC ([…], time 14 day): 67.8 mg/dL | TG ([…], time 14 day): 152.8 mg/dL | TP ([…], time 14 day): 5.8 g/dL | gamma-GTP ([…], time 14 day): 1 IU/L | ALP ([…], time 28 day): 605.4 IU/L | ALT ([…], time 28 day): 33.2 IU/L | AST ([…], time 28 day): 60.8 IU/L | BUN ([…], time 28 day): 17 mg/dL | CRE ([…], time 28 day): 0.5 mg/dL | Ca ([…], time 28 day): 10.1 mg/dL | Cl ([…], time 28 day): 103.2 meq/L | DBIL ([…], time 28 day): 0.1 mg/dL | GLC ([…], time 28 day): 213 mg/dL | IP ([…], time 28 day): 6.3 mg/dL | K ([…], time 28 day): 3.7 meq/L | LDH ([…], time 28 day): 150 IU/L | Na ([…], time 28 day): 141 meq/L | PL ([…], time 28 day): 132.4 mg/dL | RALB ([…], time 28 day): 3.4 g/dL | TBIL ([…], time 28 day): 0.2 mg/dL | TC ([…], time 28 day): 65.4 mg/dL | TG ([…], time 28 day): 111.6 mg/dL | TP ([…], time 28 day): 6 g/dL | gamma-GTP ([…], time 28 day): 1.2 IU/L
